In patent US9062004B2, “Cannabinoid-2 agonists” (Allergan, Inc., priority 2010, dated 2015):
Read-outs that look alike come from different tables or passages of the source.

Legend:
[1] = biological target: human CB2 cannabinoid receptor (Homo sapiens (Human), UniProt P34972); experiment: Radioligand binding assay, CB2 ([3H]-CP 55,940 competition); details: for CB2 Selectivity: CB2 versus CB1 binding (ratio of CB1 IC50 to CB2 IC50); for IC50: plasma membranes of HEK 293 EBNA cells transfected with human CB2, 0.72 nM [3H]-CP 55,940, NA = not active
Chain of human CB2 cannabinoid receptor (P34972 whole entry): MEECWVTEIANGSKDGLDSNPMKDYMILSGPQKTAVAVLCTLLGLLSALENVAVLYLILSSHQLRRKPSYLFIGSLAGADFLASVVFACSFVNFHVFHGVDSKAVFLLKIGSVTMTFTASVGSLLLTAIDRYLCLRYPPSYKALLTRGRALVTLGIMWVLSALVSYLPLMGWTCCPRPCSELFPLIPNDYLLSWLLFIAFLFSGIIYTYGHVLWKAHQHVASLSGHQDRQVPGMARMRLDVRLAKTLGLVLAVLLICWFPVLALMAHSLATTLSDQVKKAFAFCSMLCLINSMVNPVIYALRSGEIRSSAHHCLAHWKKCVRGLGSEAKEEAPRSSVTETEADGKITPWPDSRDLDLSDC
Experimental: (§1) A. Radioligand Binding Assay
(§2) Plasma membranes prepared from HEK 293 EBNA cells transfected with human CB1 or CB2 cannabinoid receptors ([…] protein, receptor concentration; PerkinElmer) were used for the radioligand binding studies. The composition of incubation buffer for CB1 assay was 50 mM Tris base, 2.5 mM EDTA, 5 mM MgCl2 and 0.5 mg/ml fatty acid free BSA and for CB2 assay was 50 mM Tris base, 2.5 mM EGTA, 5 mM MgCl2 and 1 mg/ml fatty acid free BSA; pH was adjusted to 7.4 by adding 1N HCl. Plasma membranes were diluted with incubation buffer to provide a final protein concentration of 2.4 μg (CB1) or 8 μg (CB2) per well in non-binding surface polystyrene 96-well assay plates (Corning). Compound solutions were prepared in silanized glass tubes and dispensed using pipette tips with SUPERSLIK™ surface. Competition studies were performed using a final concentration of 0.72 nM [^3H]-CP 55,940 (100-180 Ci/mmol, specific activity; PerkinElmer) against test compounds. Non-specific binding was determined using 10 uM of unlabeled CP 55,940. Incubations were performed in 96-well assay plates at a final volume of 200 ul for 90 min (CB1) or 60 min (CB2) at room temperature. Binding reactions were terminated by the addition of ice-cold incubation buffer and rapid filtration through a glass fiber filter using a cell harvester (Inotech). This was followed by 8 additional washes. The glass fiber filter (0.26 mm thickness, 1-1.5 um retention; Inotech) was presoaked in cold incubation buffer containing 0.05% polyethylenimine. The filters were oven-dried at 50° C. for 60 min and counting performed using a Beckman Coulter LS 6500 Multi-Purpose Scintillation Counter (Beckman-Coulter). Binding was determined in duplicate for at least 4 separate experiments.

[2] = tested on: mouse isolated vas deferens; experiment: Mouse isolated vas deferens (MVD) bioassay, electrically stimulated contractions; type: cell-based; details: Mus musculus
[3] = biological target: human CB1 cannabinoid receptor (Homo sapiens (Human), UniProt P21554); experiment: Radioligand binding assay, CB1 ([3H]-CP 55,940 competition); details: plasma membranes of HEK 293 EBNA cells transfected with human CB1; 0.72 nM [3H]-CP 55,940; NA = not active
Chain of human CB1 cannabinoid receptor (P21554 whole entry): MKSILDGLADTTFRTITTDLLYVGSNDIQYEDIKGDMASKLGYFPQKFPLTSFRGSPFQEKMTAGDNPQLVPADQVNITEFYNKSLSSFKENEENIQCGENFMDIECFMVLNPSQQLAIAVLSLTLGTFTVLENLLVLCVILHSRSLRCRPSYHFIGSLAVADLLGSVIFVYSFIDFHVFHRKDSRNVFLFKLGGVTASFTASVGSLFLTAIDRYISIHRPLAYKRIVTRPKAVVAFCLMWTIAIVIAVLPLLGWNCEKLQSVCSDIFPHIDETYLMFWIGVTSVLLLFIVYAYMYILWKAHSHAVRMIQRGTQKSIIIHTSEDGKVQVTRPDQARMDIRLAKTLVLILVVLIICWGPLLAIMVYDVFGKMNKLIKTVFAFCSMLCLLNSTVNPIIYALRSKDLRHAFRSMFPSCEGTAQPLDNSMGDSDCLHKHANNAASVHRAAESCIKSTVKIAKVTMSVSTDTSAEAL
Experimental: as §1, §2

[4] = vas deferens of male Swiss Webster mice, electrically evoked contractions, NA = not active, read-out: MVD Assay EC50

| SMILES | CB2 Selectivity [1] | IC50 [1] [nM] | EC50 [2, 4] [nM] | IC50 [3] [nM] | EC50 ([2]; read-out: MVD Assay EC50 (nM)) [nM] |
| --- | --- | --- | --- | --- | --- |
| CCCNc1cnn(C2CC(C)(C)CC(C)(C)C2)c(=O)c1Cl [Compound 5, 4-Chloro-5-propylamino--2-(3,3,5,5-tetramethylcyclohexyl)pyridazin-3-one] | 189 | 5.4 | 30 | 1020 |  |
| CN(C)CCn1ncc2c(=O)n(C3CC(C)(C)CC(C)(C)C3)ncc21 [Compound 38, 1-(2-Dimethylaminoethyl)-5-(3,3,5,5-tetramethylcyclohexyl)pyrazolo[3,4-d]pyridazin-4-one] | 38 | 105 | 130 | 3980 |  |
| CCCn1cc2c(=O)n(C3CC(C)(C)CC(C)(C)C3)ncc2n1 [Compound 35, 2-Propyl-5-(3,3,5,5-tetramethylcyclohexyl)pyrazolo[3,4-d]pyridazin-4-one] | >42 | 240 |  | > 10000 | 1200 |
| Cc1cc(C)cc(-n2ncc(NCCN3CCOCC3)c(Cl)c2=O)c1 [Compound 18, 4-Chloro-2-(3,5-dimethylphenyl)-5-(2-morpholin-4-ylethylamino)-pyridazin-3-one] |  | > 10000 | ~10000 | > 10000 |  |
| CCCNc1cnn(-c2cc(Cl)cc(Cl)c2)c(=O)c1Cl [Compound 25, 4-Chloro-2-(3,5-dichlorophenyl)-5-propylaminopyridazin-3-one] |  | > 10000 | > 10000 | > 10000 |  |
| CCCNc1cnn(-c2cc(C)cc(C)c2)c(=O)c1Cl [Compound 16, 4-Chloro-2-(3,5-dimethylphenyl)-5-propylaminopyridazin-3-one] |  | 10000 | > 10000 | > 10000 |  |
| CC1(C)CC(n2ncc(NCCN3CCOCC3)c(Cl)c2=O)CC(C)(C)C1 [Compound 11, 4-Chloro-5-(2-morpholin-4-ylethyl-amino)-2-(3,3,5,5-tetramethyl-cyclohexyl)pyridazin-3-one] | 48 | 83 | 320 | 3980 |  |
